From patent publication US9701660B2, “2,6-diaminopyridine compounds suitable for treating diseases associated with amyloid or amyloid-like proteins or for treating or preventing ocular diseases or conditions associated with a pathological abnormality/change in the tissue of the visual system” (AC Immune S.A., priority 2009, dated 2017)
“And” between values parts separate entries of the source, which are not always exact repeats. Identical values can stand only once.

Columns and labels:
[1] = molecular target: T1, amyloid beta (Ab) 1-42 peptide (Homo sapiens, UniProt P05067); assay: Inhibition of amyloid beta (Ab) 1-42 peptide aggregation (thioflavin T spectrofluorescence assay); type: biochemical; conditions: for biological activity (ThT assay) in words, compared to compound 1 / compounds according to the invention: comparison; for ThT assay at 330 mM % inhib.: small molecule to Ab1-42 10:1, 24 hrs at 37° C.; for inhibition at 330 µM: mean of the two ThT assays at 330 µM, read-out: Mean % inhib.
T1 construct: amyloid beta (Ab) 1-42 peptide; purchased Bachem
Description: A number of small molecules were tested for their capacity to inhibit the aggregation of amyloid beta (Ab) 1-42 peptide using a thioflavin T spectrofluorescence assay.
Ab1-42 lyophilized powder (Bachem) was reconstituted in hexafluoroisopropanol (HFIP) to 1 mM. The peptide solution was sonicated for 15 min at room temperature, agitated overnight, and aliquots were placed in non-siliconized microcentrifuge tubes. The HFIP was then evaporated under a stream of argon. The resulting peptide film was dried under vacuum for 10 min, tightly sealed and stored at −80° C. until used.
Ab1-42 peptide film was dissolved in DMSO to reach 400 μM. Assay solution in PBS buffer was prepared in non-siliconized incubation tubes to reach the following concentrations: […] Ab1-42, 10 μM thioflavin T (ThT), and 12.8% DMSO. Therefore, the final molar ratio of small molecule to Ab1-42 was 10:1. A positive control without a small molecule was prepared to measure maximum RFU. A negative control without Ab1-42 was prepared for each small molecule. 3-Aminopyrazole trimer (Trimer) was tested in all assays to ascertain reproducibility between independent experiments. The solutions were incubated for 24 hrs at 37° C., and the spectrofluorescence (relative fluorescence units; RFU) read in six replicates in black 384-well assay plates (Perkin-Elmer) on a Perkin-Elmer FluoroCount spectrofluorometer. Inhibition of aggregation is expressed as mean % inhibition or ±1 standard deviation (SD) according to the following equation: % inhibition=(RFU of positive control−RFU of negative control)−(RFU of sample with Aβ-42−RFU of sample without Aβ1-42)×100 • (RFU of positive control−RFU of negative control)
Cut-off criteria for selection of functional molecules were defined at 50% inhibition capacity. Molecules showing an inhibition capacity over 70% were considered as very strong candidates.

[2] = Aqueous solubility in PBS (HPLC); type: physicochemical; conditions: for solubility at 24 h: PBS 1x, 24 hours at room temperature; for solubility in words, compared to compound 1: comparison
Description: Method for measuring the solubility:
• Plate shaker, Centrifuge (Eppendorf, 8 cm radius), HPLC (Dionex P580), Column: Agilent Zorbax Eclipse XDB-C18 rapid resolution (4.6×50 mm, […], Agilent), Uncoloured microtubes 1.5 mL (Eppendorf, 1.5 mL), Micropipettes […], Micropipettes […], Dulbecco's phosphate buffer, DMSO, ammonium formate, formic acid 98-100%, UP-H2O, acetonitrile HPLC grade, methanol GR analysis, PVDF membrane filter. 2. Method 2.1 Preparation of PBS 5× (Stored at 4° C.) and PBS1× for Analysis • PBS 5× • Dissolved the full content of PBS salt (D-5652-10L) in 2 L of UP-H2O. • PBS1× • Before analysis, dilute 5 fold the PBS 5× in order to prepare 30 mL of PBS1× and filter the solution using a syringe and any hydrophilic membrane e.g. PVDF membrane. 2.2 Preparation of HPLC Solvent (Stored at RT) • Solvent A: 13.3 mM ammonium formate/6.5 mM formic acid/UP-water
Dissolve 820±1 mg of ammonium formate and 245 μL of formic acid in 1000 mL of UP-H2O. • Solvent B: 6.0 mM ammonium formate/2.9 mM formic acid/90% acetonitrile/10% UP-water • Dissolve 378±1 mg of ammonium formate and 110 μL of formic acid in 900 mL acetonitrile and 100 mL of UP-H2O. 2.3 Preparation of the Stock Solution of the Compound • Dissolve compound in DMSO at a concentration of 25 mM (minimum […]). 2.4 Preparation of Standard Curve • Prepare 15 mL of methanol/H2O (6/4). • Prepare 5 standard calibrators: 250 μM, 200 μM, 50 μM, 12.5 μM and 3.13 μM in methanol/H2O (6/4). • Make preparations of each standard concentration in 1.5 microtubes.
• Transfer directly 250-300 μL from each microtube to an HPLC vial. • Run HPLC (from microtubes #6 to #1), using the following conditions:
C18 column, 0.7 mL/min, 20° C., UV detection at 254 nm, volume injection: 20 μL and one of the following gradients: […]
2.5. Preparation of the Sample for Aqueous Solubility • Prepare Samples of the Compound in Triplicates
• Shake it gently (350 rpm) for 24 hours at room temperature. • After the incubation time, centrifuge at 2500 g (5500 rpm) for 30 min. • Sample 200 μL of supernatant for HPLC analysis using the same conditions described in 2.4. 2.6. Data Treatment • Integrate area of each standard point peak at 254 nm. • Determine the standard curve for the compound by plotting the area vs. the theoretical concentration. Establish the standard curve equation based on a linear regression (with an intercept at 0, R^2≧0.90). y(area)=slope×x(concentration) • Calculate the average area of each triplicate prepared in aqueous phase.
The concentration of the compound in the supernatant is determined by the following formula: […]
The solubility of the compound is determined by the following formula: […]

[3] = molecular target: T1, amyloid beta (Ab) 1-42 peptide; assay: Inhibition of amyloid beta (Ab) 1-42 peptide aggregation (thioflavin T spectrofluorescence assay); type: biochemical; conditions: mean of 2 experiments; Ab1-42 aggregation, 24 hrs at 37° C.; read-out: IC50 ThT-assay
[4] = tested on: retinal ganglion cells (RGCs); assay: Rat model of chronic ocular hypertension (OHT)/glaucoma; type: in vivo, Dark Agouti rats; conditions: for number of viable RGCs: 3 weeks after intra-vitreal injection in the OHT eye, in comparison to the control group, p<0.001; for reduction of intraocular pressure: at 3 weeks, Tonopen
Description: A rat model of chronic ocular hypertension (OHT)/glaucoma was created by injecting hypertonic saline into the episcleral veins of one eye of Dark Agouti rats. 18 rats received an intra-vitreal injection containing a volume of 5 μL of compound 1 (ACI-260) at a concentration of 74 mg/L in the OHT eye. 18 rats served as negative control and received 5 μl of saline and 18 rats served as positive control and received 6 μL Congo Red (1.46 mg/mL). 6 animals/timepoint were euthanized at 3, 8 and 16 weeks after treatment.
Intraocular pressure (IOP) was measured using a Tonopen once every 4 weeks post dosing and prior to sacrifice (within 3 days). 5 to 7 days prior to sacrifice, animals were injected intra-cerebrally with 5 μL of 4% FluoroGold to label the retinal ganglion cells (RGCs). In order to quantify viable RGCs, images were processed using a specific system of image analysis software and viable RGCs were expressed per square millimeter.

[5] = PBS 1x (Dulbecco's phosphate buffer), aqueous buffer, kinetic from dmso stock, table with % inhib.
[6] = PBS 1x (Dulbecco's phosphate buffer), aqueous buffer, kinetic from dmso stock, table with IC50

T1 sequence (P05067 672-713 limits assumed): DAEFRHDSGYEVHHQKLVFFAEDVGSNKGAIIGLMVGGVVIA

Compound | biological activity (ThT assay) in words, compared to compound 1 / compounds according to the invention [1] | ThT assay at 330 mM % inhib. ([1]; experiment 1) [%] | ThT assay at 330 mM % inhib. ([1]; experiment 2) [%] | solubility at 24 h [2, 5] | IC50 [3] [µM] | solubility in words, compared to compound 1 [2] | also measured
CNc1cccc(CCNc2cccc(NC)n2)n1 [Compound 7] | significantly reduced activity | 77.6 | 70.3 | 50 µg/mL |  |  | inhibition at 330 µM [1]: 74%; solubility at 24 h ([2]; table with % inhib.): 195 µM
CNc1cccc(CCNc2cccc(CCNc3ccccn3)n2)n1 [Compound 5] | significantly decreased |  |  |  | 140 |  | 
CNc1cccc(NCCCc2cccc(NCCCc3ccccn3)n2)n1 [Compound 4] |  |  |  |  | 16.5 |  | solubility at 24 h [2, 6]: 38 µg/mL; solubility at 24 h ([2]; table with IC50): 103 µM
FC(F)(CNc1cccc(NCCc2ccccn2)n1)c1ccc2c(n1)NCCC2 [Compound 10] | comparable activity to compound 1 | 89.6 | 77.6 |  |  | worse | 
CNc1cccc(CCNc2cccc(NCCc3ccccn3)n2)n1 [Compound 3] |  |  |  |  | 35.3 |  | solubility at 24 h [2, 6]: 206 µM and 71 µg/mL
c1ccc(CCNc2cccc(NCCc3ccc4c(n3)NCCC4)n2)nc1 [Compound 9] | comparable activity to compound 1 | 91.8 | 93.4 | 154 µM and 57 µg/mL |  | worse | 
Nc1c(/N=N/c2ccc(-c3ccc(/N=N/c4cc(S(=O)(=O)O)c5ccccc5c4N)cc3)cc2)cc(S(=O)(=O)O)c2ccccc12 [Congo Red, reference compound] |  |  |  |  |  |  | number of viable RGCs [4]: significantly increased; reduction of intraocular pressure [4]: not observed
CNc1cccc(NCCc2cccc(NCCc3ccccn3)n2)n1 [Compound 1] |  | 88.8 | 79.6 |  | 25.5 |  | number of viable RGCs [4]: significantly increased; reduction of intraocular pressure [4]: not observed; solubility at 24 h [2, 6]: 857 µM and 298 µg/mL
FC(F)(CNc1cccc(NCC(F)(F)c2ccc3c(n2)NCCC3)n1)c1ccccn1 [Compound 12] | worse | 56.4 | 63.7 | 21.5 µM and 9.5 µg/mL |  | worse | 
FC(F)(CNc1cccc(NCCc2ccc3c(n2)NCCC3)n1)c1ccccn1 [Compound 11] | comparable activity to compound 1 | 95.3 | 94.4 | 119 µM and 48 µg/mL |  | worse | 
CNc1cccc(NCCc2ccccn2)n1 [Compound 6] | significantly reduced activity | 68.4 | 59.0 |  |  |  | inhibition at 330 µM [1]: 63.7%
CCCNc1ccc(NCc2ccc(NCc3ccc(NCCC)nc3)nc2)nc1 [Compound 8, reference compound] |  | 73.3 | 80.7 | 1 µM and 0.4 µg/mL |  | significantly worse | 
CNc1cccc(NCCc2cccc(NCc3ccccn3)n2)n1 [Compound 2] |  |  |  |  | 12.9 |  | 
CNc1cccc(CCNc2cccc(CCN(c3ccccn3)c3ccccn3)n2)n1 [Compound 13] |  |  |  |  | 298 |  | 
